Values quoted from earlier work as cited in PMC5050400 (Current Neuropharmacology, 2016).

Legend:
β3(Y143W) receptor = conditions: β3(Y143W) homomeric receptor compared with wild-type; cited from earlier work
α1β2γ2L GABAA receptors = conditions: compared with propofol; cited from earlier work

Compound	activation of the mutant receptor (β3(Y143W) receptor)	degree of potentiation (α1β2γ2L GABAA receptors)
CC(C)c1ccccc1O [2-isopropylphenol]	unchanged	
Cc1cccc(C)c1O [2,6-dimethylphenol]	unchanged	
CC(C)c1ccc(C2(C(F)(F)F)N=N2)cc1O [meta-azipropofol, 2-isopropyl-5-[3-(trifluoromethyl)-3H-diazirin-3-yl]phenol]		somewhat smaller degree of potentiation
